Test results: PubChem BioAssay AID256 (DTP/NCI, 2004)
Inconclusive results and toxic doses are left out. The calls were made as follows: active = survival T/C of 150% or more; inactive = T/C below 125% in these data.

Test system: CD2F1 mice, L1210 leukemia ip, survival T/C
Assay: NCI In Vivo Anticancer Drug Screen. Data for tumor model L1210 Leukemia (intraperitoneal) in CD2F1 (CDF1) mice
Conditions: endpoint: mean survival time, higher = longer survival
Procedure, shortened: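 Read-out first: treated-group measurement over vehicle-control measurement, expressed as a ratio. Animals bore a transplanted tumor line and were dosed with compound or vehicle.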

[1] = dose: 100.0 mg/kg/injection, schedule: Q04DX003 (ip), vehicle: saline with Tween-80
[2] = dose: 200.0 mg/kg/injection, schedule: Q04DX003 (ip), vehicle: saline with Tween-80
[3] = dose: 400.0 mg/kg/injection, schedule: Q04DX003 (ip), vehicle: saline with Tween-80
[4] = dose: 100.0 mg/kg/injection, schedule: Q04DX003 (ip), vehicle: other
[5] = dose: 200.0 mg/kg/injection, schedule: Q04DX003 (ip), vehicle: other
[6] = dose: 100.0 mg/kg/injection, schedule: Q04DX003 (ip), vehicle: Klucel (hydroxypropylcellulose) (HPC)
[7] = dose: 200.0 mg/kg/injection, schedule: Q04DX003 (ip), vehicle: Klucel (hydroxypropylcellulose) (HPC)
[8] = dose: 100.0 mg/kg/injection, schedule: Q01DX009 (ip), vehicle: saline
[9] = dose: 100.0 mg/kg/injection, schedule: Q01DX001 (ip), vehicle: saline
[10] = dose: 200.0 mg/kg/injection, schedule: Q01DX001 (ip), vehicle: saline
[11] = dose: 400.0 mg/kg/injection, schedule: Q01DX001 (ip), vehicle: saline
[12] = dose: 100.0 mg/kg/injection, schedule: Q04DX003 (ip), vehicle: saline
[13] = dose: 200.0 mg/kg/injection, schedule: Q04DX003 (ip), vehicle: saline
[14] = dose: 50.0 mg/kg/injection, schedule: Q01DX009 (ip), vehicle: saline with Tween-80
[15] = dose: 100.0 mg/kg/injection, schedule: Q01DX009 (ip), vehicle: saline with Tween-80
[16] = dose: 200.0 mg/kg/injection, schedule: Q01DX009 (ip), vehicle: saline with Tween-80
[17] = dose: 400.0 mg/kg/injection, schedule: Q01DX009 (ip), vehicle: saline with Tween-80

Measured: T/C

c1ccc(Nc2ccccc2)cc1 (tested in a mixture with another compound)
inactive: dose: 100.0 mg/kg/injection, schedule: Q04DX002 (ip), vehicle: saline 95 % of control

Cc1ccc(C(OS(=O)(=O)c2ccc(C)cc2)C(F)(F)F)cc1 (stereo not drawn)
inactive: dose: 100.0 mg/kg/injection, schedule: Q01DX001 (ip), vehicle: saline with Tween-80 104 % of control | [1] 107 % of control | dose: 200.0 mg/kg/injection, schedule: Q01DX001 (ip), vehicle: saline with Tween-80 108 % of control | [2] 101 % of control | dose: 400.0 mg/kg/injection, schedule: Q01DX001 (ip), vehicle: saline with Tween-80 106 % of control | [3] 98 % of control

O=C(O)/C=N/NS(=O)(=O)c1ccc2ccccc2c1
inactive: dose: 12.5 mg/kg/injection, schedule: Q04DX003 (ip), vehicle: other 114 % of control | dose: 25.0 mg/kg/injection, schedule: Q04DX003 (ip), vehicle: other 119 % of control | dose: 50.0 mg/kg/injection, schedule: Q04DX003 (ip), vehicle: other 119 % of control | [4] 110 % of control | [5] 103 % of control

c1ccc(CN(c2ccccc2)C2CCCCC2)cc1
inactive: [6] 91 % of control | [7] 91 % of control

O=C(SCCNCCNC1CC2CCC1C2)c1ccccc1 (stereo not drawn)
inactive: dose: 9.4 mg/kg/injection, schedule: Q01DX009 (ip), vehicle: saline with Tween-80 98 % of control | dose: 9.4 mg/kg/injection, schedule: Q04DX003 (ip), vehicle: saline with Tween-80 95 % of control | dose: 18.8 mg/kg/injection, schedule: Q01DX001 (ip), vehicle: saline 97 % of control | dose: 18.8 mg/kg/injection, schedule: Q01DX009 (ip), vehicle: saline with Tween-80 97 % of control | dose: 18.8 mg/kg/injection, schedule: Q04DX003 (ip), vehicle: saline with Tween-80 92 % of control | dose: 37.5 mg/kg/injection, schedule: Q01DX001 (ip), vehicle: saline 100 % of control | dose: 37.5 mg/kg/injection, schedule: Q01DX009 (ip), vehicle: saline with Tween-80 97 % of control | dose: 37.5 mg/kg/injection, schedule: Q04DX003 (ip), vehicle: saline with Tween-80 95 % of control

Clc1ccc2[nH]c3nc4ccccc4nc3c2c1
inactive: [8] 106 % of control | dose: 200.0 mg/kg/injection, schedule: Q01DX009 (ip), vehicle: saline 108 % of control

CC1(C#N)CCC(=O)N1 (stereo not drawn)
inactive: [9] 95 % of control | [10] 95 % of control | [11] 93 % of control

CN1NC(=O)C2CCCC1O2 (stereo not drawn)
inactive: dose: 12.5 mg/kg/injection, schedule: Q01DX009 (ip), vehicle: saline 106 % of control | dose: 25.0 mg/kg/injection, schedule: Q01DX009 (ip), vehicle: saline 102 % of control | dose: 50.0 mg/kg/injection, schedule: Q01DX009 (ip), vehicle: saline 105 % of control | [8] 111 % of control

C/C=C1\C[C@@H]2C(OC)Nc3cc(O)c(OC)cc3C(=O)N2C1 (stereo partly drawn)
inactive: dose: 0.03 mg/kg/injection, schedule: Q01DX009 (ip), vehicle: saline 103 % of control | dose: 0.03 mg/kg/injection, schedule: Q01DX009 (ip), vehicle: suspension in saline 102 % of control | dose: 0.06 mg/kg/injection, schedule: Q01DX009 (ip), vehicle: saline 104 % of control | dose: 0.06 mg/kg/injection, schedule: Q01DX009 (ip), vehicle: suspension in saline 101 % of control | dose: 0.12 mg/kg/injection, schedule: Q01DX009 (ip), vehicle: saline 109 % of control | dose: 0.12 mg/kg/injection, schedule: Q01DX009 (ip), vehicle: suspension in saline 108 % of control | dose: 0.25 mg/kg/injection, schedule: Q01DX009 (ip), vehicle: saline 106 % of control | dose: 0.25 mg/kg/injection, schedule: Q01DX009 (ip), vehicle: suspension in saline 120 % of control | dose: 0.5 mg/kg/injection, schedule: Q01DX009 (ip), vehicle: saline 118 % of control | dose: 0.5 mg/kg/injection, schedule: Q01DX009 (ip), vehicle: suspension in saline 123 % of control | dose: 0.75 mg/kg/injection, schedule: Q04DX002 (ip), vehicle: saline 106 % of control | dose: 1.0 mg/kg/injection, schedule: Q01DX009 (ip), vehicle: saline 110 % of control | dose: 1.0 mg/kg/injection, schedule: Q01DX009 (ip), vehicle: suspension in saline 92 % of control | dose: 1.5 mg/kg/injection, schedule: Q04DX002 (ip), vehicle: saline 114 % of control

CCC(N)C(O)C(C)C (stereo not drawn)
inactive: [9] 105 % of control | [10] 90 % of control | [11] 96 % of control

CCCN(CCC)N=Nc1ccccc1
inactive: dose: 75.0 mg/kg/injection, schedule: Q01DX001 (ip), vehicle: saline 104 % of control | dose: 150.0 mg/kg/injection, schedule: Q01DX001 (ip), vehicle: saline 101 % of control

CCOP(=[Se])(OCC)[Se][Se][Se]P(=[Se])(OCC)OCC
inactive: [9] 108 % of control

COC1C(O)C(C)OC(O[C@@H]2C[C@H]3CC[C@@H]4[C@H](CC[C@]5(C)[C@@H](C6=CC(=O)OC6)CC[C@]45O)[C@@]3(C)[C@H](O)C2)C1O (stereo partly drawn)
inactive: dose: 75.0 mg/kg/injection, schedule: Q01DX001 (ip), vehicle: other 90 % of control | dose: 150.0 mg/kg/injection, schedule: Q01DX001 (ip), vehicle: other 91 % of control

NC(=O)C1=C(CCCCl)c2ccccc2C1=O
inactive: dose: 50.0 mg/kg/injection, schedule: Q04DX003 (ip), vehicle: saline 112 % of control | [9] 102 % of control | [12] 115 % of control | [10] 95 % of control | [13] 90 % of control

C#CCOC(=O)NC1CCCCC1
inactive: [6] 104 % of control | [7] 105 % of control | dose: 400.0 mg/kg/injection, schedule: Q04DX003 (ip), vehicle: Klucel (hydroxypropylcellulose) (HPC) 102 % of control

C/C=C\c1ccc(OCCOC(=O)Nc2cc(Cl)c(OC)cc2OC)c(OC)c1
inactive: [14] 90 % of control | [15] 90 % of control

Cc1cc(C)c(C)c(S(=O)(=O)O)c1C
inactive: [14] 102 % of control | [15] 102 % of control | [1] 101 % of control | [2] 89 % of control

CC(C)(C)c1cc(O)c(O)c(C(C)(C)C)c1
inactive: [4] 101 % of control | [5] 95 % of control

CSc1nc(C)cc(=O)[nH]1
inactive: dose: 100.0 mg/kg/injection, schedule: Q04DX002 (ip), vehicle: saline with Tween-80 94 % of control | dose: 200.0 mg/kg/injection, schedule: Q04DX002 (ip), vehicle: saline with Tween-80 97 % of control | dose: 400.0 mg/kg/injection, schedule: Q04DX002 (ip), vehicle: saline with Tween-80 90 % of control

CC(Cc1ccccc1)NC(C)Cc1ccccc1 (stereo not drawn)
inactive: [1] 98 % of control | [2] 102 % of control

O=[N+]([O-])CS(=O)(=O)N1CCOCC1
inactive: [9] 103 % of control | [10] 106 % of control | [11] 110 % of control

Oc1ccccc1CNc1ccccc1
inactive: [1] 98 % of control | [2] 93 % of control | [3] 104 % of control

NC(=O)NC(CC(=O)O)C(=O)O (stereo not drawn)
inactive: [15] 96 % of control | [16] 98 % of control | [17] 95 % of control

CC1(C(=O)O)C2C3C=CC(C3)C21 (stereo not drawn)
inactive: [15] 100 % of control | [16] 97 % of control | [17] 103 % of control

N#CSCc1ccc(Cl)cc1Cl
inactive: [14] 103 % of control | [15] 101 % of control | [16] 96 % of control

CC(=O)Oc1ccc(N2C(=O)C3C(C2=O)C2c4ccccc4C3C3CCCCN32)cc1 (stereo not drawn) (tested in a mixture with another compound)
inactive: dose: 25.0 mg/kg/injection, schedule: Q01DX009 (ip), vehicle: water 101 % of control | dose: 50.0 mg/kg/injection, schedule: Q01DX009 (ip), vehicle: water 95 % of control | dose: 100.0 mg/kg/injection, schedule: Q01DX009 (ip), vehicle: water 95 % of control | dose: 200.0 mg/kg/injection, schedule: Q01DX009 (ip), vehicle: water 90 % of control

c1ccc2[nH]c(CCCCc3nc4ccccc4[nH]3)nc2c1
inactive: [12] 104 % of control | [13] 100 % of control

O=C(O)c1cc(Br)c(O)cc1O
inactive: [1] 97 % of control | [2] 97 % of control | [3] 87 % of control
